Source: US9399653B2, “Methods and systems for preparing irreversible inhibitors of protein tyrosine phosphatases” (The Governors of the University of Alberta, priority 2010, dated 2016)
Where “and” joins values, the source holds several entries; their conditions need not be identical. Identical values can stand only once.

Tests used:
[1] = target: T1, human CD45-cytoplasmic domain (Homo sapiens, UniProt P08575); experiment: Phosphatase enzyme inhibition, CD45, fluorogenic substrate DiFMUP; type: biochemical; details: for inhibition of CD45 (in words): DiFMUP substrate
T1 construct: human CD45-cytoplasmic domain (Enzo Life Science); purchased Enzo Life Science
T1 sequence (P08575 599-1306 limits assumed): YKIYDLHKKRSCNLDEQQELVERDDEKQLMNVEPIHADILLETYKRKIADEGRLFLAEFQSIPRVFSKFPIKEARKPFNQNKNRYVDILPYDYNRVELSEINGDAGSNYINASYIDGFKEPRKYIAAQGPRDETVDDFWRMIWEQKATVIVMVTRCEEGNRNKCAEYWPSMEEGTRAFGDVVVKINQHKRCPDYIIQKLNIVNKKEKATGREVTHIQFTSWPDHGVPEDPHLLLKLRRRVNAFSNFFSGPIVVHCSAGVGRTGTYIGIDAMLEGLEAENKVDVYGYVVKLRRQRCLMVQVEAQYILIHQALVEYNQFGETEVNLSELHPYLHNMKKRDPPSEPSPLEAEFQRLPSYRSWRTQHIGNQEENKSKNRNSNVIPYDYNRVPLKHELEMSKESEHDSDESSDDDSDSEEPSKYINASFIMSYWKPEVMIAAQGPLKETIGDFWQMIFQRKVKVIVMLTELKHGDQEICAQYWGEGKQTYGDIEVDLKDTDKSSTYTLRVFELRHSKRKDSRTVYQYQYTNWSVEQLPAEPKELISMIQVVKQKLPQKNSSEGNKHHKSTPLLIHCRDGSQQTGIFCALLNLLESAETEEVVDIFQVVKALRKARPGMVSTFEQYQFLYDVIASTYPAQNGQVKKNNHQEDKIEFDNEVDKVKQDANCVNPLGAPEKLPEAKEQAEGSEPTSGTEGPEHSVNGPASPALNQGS
Method: Enzyme assays were conducted using human CD45-cytoplasmic domain (Enzo Life Science; diluted to 4 mU/μL in 50 mM HEPES, pH 7.2, 1 mM EDTA, and 0.1% nonidet P-40) (FIG. 6-8), or bovine alkaline phosphatase (New England Bio Labs; diluted to 4 mU/μL in 100 mM NaCl, 50 mM tris-HCl, 10 mM MgCl2 1 mM dithiothreitol, pH 7.9) (FIG. 2-5). Enzyme activity was detected with a fluorogenic substrate (6,8-difluoro-4-methylumbelliferyl phosphate; DiFMUP) (Invitrogen). Assays were performed in black 96-well plates and read in a Spectra Max M2 plate reader (Molecular Devices). For CD45 assays, substrate concentration was between 1 μM to 50 μM, for alkaline phosphatase substrate concentration was between 10 nM to 10 μM. Stock solutions of inhibitors (100 mM of compound 7 in deionized water; and 10 mM of compound 17 in 50% deionized water and 50% DMSO) were prepared and stored at −20° C. Final solutions in microplate wells contained a total volume of 100 μL consisting of 2 μL of diluted enzyme, inhibitor, and DiFMUP substrate diluted to 100 μL in the appropriate buffer. All wells were incubated for 10 min at 37° C. in the plate reader prior to the addition of DiFMUP. After incubation, substrate was added and the plate was read at an excitation maximum of 358 nm and an emission maximum of 450 nm every 30 seconds for 125 min (CD45) or 65 min (alkaline phosphatase).
The Km for DiFMUP with each enzyme was first determined, and the experiment was then repeated in the presence of the inhibitor at a concentration close to an initially estimated K, (TABLE 1). […] Previous reports of PTP inhibition using BBP analogs observed irreversible inhibition of the enzyme.(22) Evaluation of the kinetic data described above using reciprocal plots (FIG. 9-12) was not consistent with pure competitive inhibition of CD45, but this analysis is not conclusive on its own.
(§1) The Kitz-Wilson analysis estimated the rate of irreversible inhibition (k3) of CD45 at 0.05 min^−1 for both compounds. To provide additional support for the expected mechanism of inhibition, we measured CD45 activity for an enzyme sample which was pre-incubated with the inhibitor and compared it to an enzyme sample that was only incubated with the inhibitor for a short period.

CD45 = target: T2, CD45 (Homo sapiens, UniProt P08575); experiment: Time-dependent inhibition of CD45 (pre-incubation with inhibitor); type: biochemical; details: compound at 25 μM, enzyme incubated 13 h (FIG. 13)
T2 construct: Enzyme assays were conducted using human CD45-cytoplasmic domain (Enzo Life Science); purchased Enzo Life Science
T2 sequence (P08575 599-1306 limits assumed): T1 sequence (P08575 599-1306 limits assumed)
Method: FIG. 13 is a plot of time-dependent inhibition of CD45 enzyme activity in the presence of compound 1 at a concentration of 25 μM. The enzyme was incubated for 13 h, either alone or in the presence of compound 1.
Time-Dependent Inhibition of CD45 by Compound 1
as §1

Row | Molecule | inhibition of CD45 (in words) [1] | KI ([1]; Kitz-Wilson analysis) | Ki ([1]; Kitz-Wilson analysis) [µM] | k3, rate of enzyme inactivation ([1]; Kitz-Wilson analysis) | potency relative to BrPmp alone ([1]; from Kitz-Wilson KI values (Example 8)) | potency relative to BrPmp alone ([1]; initial kinetic data (Example 7)) | CD45 activity after pre-incubation with inhibitor (CD45)
1 | O=P(O)(O)C(Br)c1ccccc1 (centres unmarked) [compound 7, [bromo(phenyl)methyl]phosphonic acid, reference compound] | failure to alter the rate of reaction | did not give a saturating curve |  |  |  |  | 
2 | CC(C)C[C@H](NC(=O)[C@H](Cc1ccc(C(Br)P(=O)(O)O)cc1)NC(=O)[C@@H](N)CC(=O)O)C(=O)O (some centres unmarked) [compound 17, Asp-BrPmp-Leu] | significant inhibition of the enzyme at low micromolar concentrations |  | 16 ± 4 | 0.05 min⁻¹ and 0.048 ± 0.003 min⁻¹ | approximately 4 fold | approximately 7 fold | 
3 | L-BrPmp-OH [compound 1] |  |  |  |  |  |  | at long incubation times completely inactivated the enzyme
